Assay results as given in patent publication US20180214428A1, “3-(1H-INDOL-2-YL)-1H-PYRAZOLO[3,4-B]PYRIDINES AND THERAPEUTIC USES THEREOF” (Samumed, LLC, priority 2015, published 2018).

How the values were obtained:
[1] = test system: primary human fibroblasts derived from IPF patients (LL29 cells); assay: Inhibition of the fibrotic process: αSMA staining in TGF-β1 treated LL29 fibroblasts; assay type: cell-based; conditions: Homo sapiens, Fibroblast, 96 h, TGF-β1 20 ng/mL, 4 days, % αSMA positive cells
Source text: Representative compounds were screened using primary human fibroblasts (derived from IPF patients) treated with TGF-β1 to determine their ability to inhibit the fibrotic process.
Primary human fibroblasts derived from IPF patients (LL29 cells) [^1Xiaoqiu Liu, et. al., “Fibrotic Lung Fibroblasts Show Blunted Inhibition by cAMP Due to Deficient cAMP Response Element-Binding Protein Phosphorylation”, Journal of Pharmacology and Experimental Therapeutics (2005), 315(2), 678-687; ^2Watts, K. L., et. al., “RhoA signaling modulates cyclin D1 expression in human lung fibroblasts; implications for idiopathic pulmonary fibrosis”, Respiratory Research (2006), 7(1), 88] were obtained from American Type Culture Collection (ATCC) and expanded in F12 medium supplemented with 15% Fetal Bovine Serum and Penicillin/Streptomycin.
Each compound was dissolved in DMSO as a 10 mM stock and used to prepare compound source plates. Serial dilution (1:2, 11-point dose-response curves from 10 μM to […]) and compound transfer was performed using the ECHO 550 (Labcyte, Sunnyvale, Calif.) into 384-well clear bottom assay plates (Greiner Bio-One) with appropriate DMSO backfill for a final DMSO concentration of 0.1%. LL29 cells are plated at 1,500 cells/well in 80 μL/well F12 medium supplemented with 1% Fetal Bovine Serum. One hour after addition of the cells, TGF-01 (Peprotech; 20 ng/mL) was added to the plates to induce fibrosis (ref. 1 and 2 above). Wells treated with TGF-β1 and containing DMSO were used as controls. Cells were incubated at 37° C. and 5% CO2 for 4 days. Following incubation for 4 days, SYTOX green nucleic acid stain (Life Technologies [Thermo Fisher Scientific]) was added to the wells at a final concentration of 1 μM and incubated at room temperature for 30 min. Cells were then fixed using 4% formaldehyde (Electron Microscopy Sciences), washed 3 times with PBS followed by blocking and permeabilization using 3% Bovine Serum Albumin (BSA; Sigma) and 0.3% Triton X-100 (Sigma) in PBS. Cells were then stained with antibody specific to α-smooth muscle actin (aSMA; Abcam) (ref. 1 and 2 above) in 3% Bovine Serum Albumin (BSA; Sigma) and 0.3% Triton X-100 (Sigma) in PBS, and incubated overnight at 4° C. Cells were then washed 3 times with PBS, followed by incubation with Alexa Flor-647 conjugated secondary antibody (Life Technologies [Thermo Fisher Scientific]) and DAPI at room temperature for 1 hour. Cells were then washed 3 times with PBS and plates were sealed for imaging. αSMA staining was imaged by excitation at 630 nm and emission at 665 nm and quantified using the Compartmental Analysis program on the CellInsight CX5 (Thermo Scientific). Dead or apoptotic cells were excluded from analysis based on positive SYTOX green staining. % of total cells positive for aSMA were counted in each well and normalized to the average of 11 wells treated with TGF-01 on the same plate using Dotmatics' Studies Software. The normalized averages (fold change over untreated) of 3 replicate wells for each compound concentration were used to create dose-responses curves and EC50 values were calculated using non-linear regression curve fit in the Dotmatics' Studies Software. For EC50 of >10 μM, the percent inhibition at 10 μM is provided.

SW480 colon cancer cells = assay: Cell viability assay (CellTiter-Blue) in SW480 colon cancer cells; assay type: cell-based, human; conditions: Homo sapiens, 96 h, four days, CellTiter-Blue
Protocol: Representative compounds were screened using the following assay procedure to assess the effect on cell viability as described below.
Each compound was dissolved in DMSO as a 10 mM stock and used to prepare compound source plates. Serial dilution (1:3, 8-point dose-response curves from 10 μM to 0.0045 μM) and compound transfer was performed using the ECHO 550 (Labcyte, Sunnyvale, Calif.) into 96-well clear bottom, black-walled plates (Corning-Costar).
Approximately 2×10^3 SW480 colon cancer cells were seeded into each well and allowed to incubate in the presence or absence of compound for four days at 37° C./5% CO2. Eight replicates of DMSO-treated cells served as controls and cells treated with compound were performed in duplicate.
After incubation, 20 μL of CellTiter-Blue (Promega) was added to each well allowed to incubate for approximately 3 hours. This reagent was a buffered solution which contains resazurin, metabolically active cells were able to reduce rezarurin (blue) into resorufin (pink) which was highly fluorescent. This measured fluorescence was used as a readout for cell viability.
After incubation, the plates were read at Ex 560 nm Em 590 nm (Cytation 3, BioTek). Dose-response curves were generated and EC50 concentration values were calculated using non-linear regression curve fit in the GraphPad Prism (San Diego, Calif.) or Dotmatics' Studies Software (Bishops Stortford, UK). For EC50 of >10 μM, the percent inhibition at 10 μM is provided.

[2] = test system: Wnt activity (Sp5-Luc reporter gene, SW480 colon carcinoma cells); assay: Screening assay for Wnt activity: Sp5-Luc reporter gene assay in SW480 cells; assay type: cell-based, human; conditions: Homo sapiens, overnight incubation
Source text: The screening assay for Wnt activity is described as follows. Reporter cell lines can be generated by stably transducing cancer cell lines (e.g., colon cancer) or primary cells (e.g., IEC-6 intestinal cells) with a lentiviral construct that includes a Wnt-responsive promoter driving expression of the firefly luciferase gene.
SW480 colon carcinoma cells were transduced with a lentiviral vector expressing luciferase with a human Sp5 promoter consisting of a sequence of eight TCF/LEF binding sites. SW480 cells stably expressing the Sp5-Luc reporter gene and a hygromycin resistance gene were selected by treatment with 150 μg/mL of hygromycin for 7 days. These stably transduced SW480 cells were expanded in cell culture and used for all further screening activities. Each compound was dissolved in DMSO as a 10 mM stock and used to prepare compound source plates. Serial dilution (1:3, 10-point dose-response curves starting from 10 μM) and compound transfer was performed using the ECHO 550 (Labcyte, Sunnyvale, Calif.) into 384-well white solid bottom assay plates (Greiner Bio-One) with appropriate DMSO backfill for a final DMSO concentration of 0.1%. For Sp5-Luc reporter gene assays, the cells were plated at 4,000 cells/well in 384-well plates with medium containing 1% fetal bovine serum and incubated overnight at 37° C. and 5% CO2. Following incubation, 20 μl of BrightGlo luminescence reagent (Promega) was added to each well of the 384-well assay plates. The plates were placed on an orbital shaker for 2 min and then luminescence was quantified using the Envision (Perkin Elmer) plate reader. Readings were normalized to DMSO only treated cells, and normalized activities were utilized for EC50 calculations using the dose-response log (inhibitor) vs. response variable slope (four parameters) nonlinear regression feature available in GraphPad Prism 5.0 (or Dotmatics). For EC50 of >10 μM, the percent inhibition at 10 μM is provided.

IL-6 = IL-6 inhibition in LPS-stimulated THP-1 monocytes (HTRF); assay type: cell-based, human; conditions: Homo sapiens; THP-1 cells, 500 ng/mL LPS, 22 h, HTRF IL-6 readout; 10-point dose-response from 10 μM
Protocol: Human monocyte cell line (THP-1 cells; Catalog # TIB-202, ATCC, Manassas, Va.) were cultured in Roswell Park Memorial Institute (RPMI) 1640 Medium (Catalog #21870-100, Buffalo, N.Y.) with 1% L-glutamine, 1% HEPES, 1% Sodium Pyruvate, 2% Sodium Bicarbonate supplemented with 100 units/mL penicillin, 50 μg/mL streptomycin, 2-mercaptoethanol (0.05 mM) [basal medium] and 10% fetal bovine serum (Catalog #16140089, Life Technologies, Carlsbad, Calif.) at 37° C. and 5% CO2.
THP-1 cells were cultured in basal media with 1% FBS for 24 hours before the start of the assay. Each compound was dissolved in DMSO as a 10 mM stock and used to prepare compound source plates. Serial dilution (1:3, 10-point dose-response curves starting from 10 μM) and compound transfer was performed using the ECHO 550 (Labcyte, Sunnyvale, Calif.) into 384-well white low volume assay plates (Greiner Bio-One) with appropriate DMSO backfill for a final DMSO concentration of 0.1%. THP-1 cells were plated at 5000 cells/well in the 384-well plates and incubated at 37° C. for 2 h. 500 ng/mL of LPS was added after 2 hours and cells were incubated for another 22 hours at 37° C. Plates were spun in a centrifuge for 1 minute at […] and a mixture of anti-IL6 XL665, and anti-IL6 Cryptate diluted in reconstitution buffer (Cisbio Inc.) was added to each well. Following incubation for 3 hrs at room temperature, Homogeneous Time-Resolved Fluorescence (HTRF) was measured using the Envision (Perkin Elmer) at 665 nm and […]. The ratio of fluorescence at 665 nm to 620 nm was used as a readout for IL6 quantification. All samples were processed in duplicate. Readings were normalized to DMSO treated cells and normalized activities were utilized for EC50 calculations using the dose-response log (inhibitor) vs. response variable slope (four parameters) nonlinear regression feature available in GraphPad Prism 5.0 (or Dotmatics). For EC50 of >10 μM, the percent inhibition at 10 μM is provided.

| EC50 (SW480 colon cancer cells) [nM] | EC50 [2] [nM] | EC50 (IL-6) [nM] | Structure (SMILES) | EC50 [1] [nM] |
| --- | --- | --- | --- | --- |
| 3670 | 290 | 2640 | CCC(=O)Nc1cncc(-c2cnc3[nH]nc(-c4cc5c(N6CCCCC6)cccc5[nH]4)c3c2)c1 [Compound 145, N-(5-(3-(4-(Piperidin-1-yl)-1H-indol-2-yl)-1H-pyrazolo[3,4-b]pyridin-5-yl)pyridin-3-yl)propionamide] | 1410 |
| 1050 | 154 | 213 | Nc1cncc(-c2cnc3[nH]nc(-c4cc5c(N6CCCCC6)cccc5[nH]4)c3c2)c1 [Compound 147, 5-(3-(4-(Piperidin-1-yl)-1H-indol-2-yl)-1H-pyrazolo[3,4-b]pyridin-5-yl) pyridin-3-amine] | 620 |
| 1860 | 1460 | 2310 | CN(C)Cc1cncc(-c2cnc3[nH]nc(-c4cc5c(N6CCCCC6)cccc5[nH]4)c3c2)c1 [Compound 157, N,N-Dimethyl-1-(5-(3-(4-(piperidin-1-yl)-1H-indol-2-yl)-1H-pyrazolo[3,4-b]pyridin-5-yl)pyridin-3-yl)methanamine] | 1230 |
| 9940 | 1080 | 1190 | O=C(Nc1cncc(-c2cnc3[nH]nc(-c4cc5c(N6CCCCC6)cccc5[nH]4)c3c2)c1)C1CC1 [Compound 164, N-(5-(3-(4-(piperidin-1-yl)-1H-indol-2-yl)-1H-pyrazolo[3,4-b]pyridin-5-yl)pyridin-3-yl)cyclopropanecarboxamide] | 4330 |
| 3270 | 3420 | 477 | Cc1ccncc1-c1cnc2[nH]nc(-c3cc4c(N5CCN(C)CC5)cccc4[nH]3)c2c1 [Compound 205, 3-(4-(4-Methylpiperazin-1-yl)-1H-indol-2-yl)-5-(4-methylpyridin-3-yl)-1H-pyrazolo[3,4-b]pyridine] | 2560 |
| 1940 | 1300 | 173 | CC(C)Nc1cncc(-c2cnc3[nH]nc(-c4cc5c(N6CCN(C)CC6)cccc5[nH]4)c3c2)c1 [Compound 212, N-Isopropyl-5-(3-(4-(4-methylpiperazin-1-yl)-1H-indol-2-yl)-1H-pyrazolo[3,4-b]pyridin-5-yl)pyridin-3-amine] | 1480 |

The remaining lines, values behind:

| Structure (SMILES) | EC50 (SW480 colon cancer cells) [nM] | EC50 [2] [nM] | EC50 (IL-6) [nM] | EC50 [1] [nM] |
| --- | --- | --- | --- | --- |
| CN(C)Cc1cncc(-c2cnc3[nH]nc(-c4cc5c(-c6cccc(F)c6)cccc5[nH]4)c3c2)c1 [Compound 10, 1-(5-(3-(4-(3-Fluorophenyl)-1H-indol-2-yl)-1H-pyrazolo[3,4-b]pyridin-5-yl)pyridin-3-yl)-N,N-dimethylmethanamine] | 3440 | 1060 | 1560 | 4390 |
| CC(C)Nc1cncc(-c2cnc3[nH]nc(-c4cc5c(-c6ccccc6F)cccc5[nH]4)c3c2)c1 [Compound 57, 5-(3-(4-(2-Fluorophenyl)-1H-indol-2-yl)-1H-pyrazolo[3,4-b]pyridin-5-yl)-N-isopropylpyridin-3-amine] | 1820 | 371 | 753 | 411 |
| CCCCC(=O)Nc1cncc(-c2cnc3[nH]nc(-c4cc5c(-c6ccccc6F)cccc5[nH]4)c3c2)c1 [Compound 64, N-(5-(3-(4-(2-Fluorophenyl)-1H-indol-2-yl)-1H-pyrazolo[3,4-b]pyridin-5-yl)pyridin-3-yl)pentanamide] | 3880 | 796 | 3280 | 1770 |
| CCCC(=O)Nc1cncc(-c2cnc3[nH]nc(-c4cc5c(-c6ccncc6)cccc5[nH]4)c3c2)c1 [Compound 110, N-(5-(3-(4-(Pyridin-4-yl)-1H-indol-2-yl)-1H-pyrazolo[3,4-b]pyridin-5-yl)pyridin-3-yl)butyramide] | 2260 | 365 | 45 | 2070 |
| CC(C)(C)C(=O)Nc1cncc(-c2cnc3[nH]nc(-c4cc5ccccc5[nH]4)c3c2)c1 [Compound 235, N-(5-(3-(1H-Indol-2-yl)-1H-pyrazolo[3,4-b]pyridin-5-yl)pyridin-3-yl) pivalamide] | 3460 | 732 | 350 | 282 |
